Test results: PubChem BioAssay AID330 (DTP/NCI, 2004)
Where “and” joins values, the source holds several entries; their conditions need not be identical. Equal values may be shown once. Toxic doses and inconclusive results are not listed. The calls were made as follows: active = survival T/C of 150% or more; inactive = T/C below 125% in these data.

System: P388 leukemia ip, CD2F1 mice, survival T/C
Assay: NCI In Vivo Anticancer Drug Screen. Data for tumor model P388 Leukemia (intraperitoneal) in CD2F1 (CDF1) mice
Details: endpoint: median survival time, higher = longer survival
Method in brief: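 Mice carrying the transplanted tumor received test compound or vehicle. Survival was recorded in each group, and the value is the treated-group measurement divided by that of the vehicle-treated control group.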

[1] = dose: 50.0 mg/kg/injection, schedule: Q01DX005 (ip), vehicle: Klucel (hydroxypropylcellulose) (HPC)
[2] = dose: 100.0 mg/kg/injection, schedule: Q01DX005 (ip), vehicle: Klucel (hydroxypropylcellulose) (HPC)
[3] = dose: 200.0 mg/kg/injection, schedule: Q01DX005 (ip), vehicle: Klucel (hydroxypropylcellulose) (HPC)
[4] = dose: 12.5 mg/kg/injection, schedule: Q01DX009 (ip), vehicle: saline with Tween-80
[5] = dose: 25.0 mg/kg/injection, schedule: Q01DX009 (ip), vehicle: saline with Tween-80
[6] = dose: 50.0 mg/kg/injection, schedule: Q01DX009 (ip), vehicle: saline with Tween-80
[7] = dose: 50.0 mg/kg/injection, schedule: Q01DX009 (ip), vehicle: saline
[8] = dose: 100.0 mg/kg/injection, schedule: Q01DX009 (ip), vehicle: saline
[9] = dose: 200.0 mg/kg/injection, schedule: Q01DX009 (ip), vehicle: saline

Measured: T/C

COc1ccc(C(c2cc3c(cc2O)OCO3)N2CCOCC2)cc1OC (stereo unspecified)
inactive: dose: 60.0 mg/kg/injection, schedule: Q01DX005 (ip), vehicle: saline with Tween-80 101 % of control | dose: 120.0 mg/kg/injection, schedule: Q01DX005 (ip), vehicle: saline with Tween-80 109 % of control | dose: 240.0 mg/kg/injection, schedule: Q01DX005 (ip), vehicle: saline with Tween-80 111 % of control

CCCC(Cc1ccccc1)C(=O)O (stereo unspecified)
inactive: dose: 100.0 mg/kg/injection, schedule: Q01DX001 (ip), vehicle: saline with Tween-80 123 % of control | dose: 200.0 mg/kg/injection, schedule: Q01DX001 (ip), vehicle: saline with Tween-80 108 % of control | dose: 400.0 mg/kg/injection, schedule: Q01DX001 (ip), vehicle: saline with Tween-80 124 % of control

C=C1CCC(Br)C2(C)CCC(C(C)(C)O)CC12 (stereo unspecified)
inactive: dose: 2.0 mg/kg/injection, schedule: Q01DX009 (ip), vehicle: Klucel (hydroxypropylcellulose) (HPC) 100 % of control | dose: 4.0 mg/kg/injection, schedule: Q01DX009 (ip), vehicle: Klucel (hydroxypropylcellulose) (HPC) 100 % of control | dose: 8.0 mg/kg/injection, schedule: Q01DX009 (ip), vehicle: Klucel (hydroxypropylcellulose) (HPC) 98 % of control | dose: 16.0 mg/kg/injection, schedule: Q01DX009 (ip), vehicle: Klucel (hydroxypropylcellulose) (HPC) 99 % of control

C1CCNCC1.CC(=O)[C-](C(C)=O)c1ccccc1.CC(=O)[C-](C(C)=O)c1ccccc1.CC(=O)[C-](C(C)=O)c1ccccc1.CC(=O)[C-](C(C)=O)c1ccccc1.[Eu+3]
inactive: dose: 100.0 mg/kg/injection, schedule: Q04DX002 (ip), vehicle: Klucel (hydroxypropylcellulose) (HPC) 86 % of control | dose: 400.0 mg/kg/injection, schedule: Q04DX002 (ip), vehicle: Klucel (hydroxypropylcellulose) (HPC) 97 % of control

COc1ccccc1C(=O)c1ccccc1C(=O)O
inactive: [1] 101 % of control | [2] 105 % of control | [3] 103 % of control

CC1=C2C(=CC(C)(CO)C2O)C(O)C(C)(O)C12CC2 (stereo unspecified)
inactive: dose: 0.78 mg/kg/injection, schedule: Q01DX009 (ip), vehicle: water 100 % of control | dose: 1.56 mg/kg/injection, schedule: Q01DX009 (ip), vehicle: water 114 % of control | dose: 3.13 mg/kg/injection, schedule: Q01DX009 (ip), vehicle: water 105 % of control | dose: 6.25 mg/kg/injection, schedule: Q01DX009 (ip), vehicle: water 112 % of control | dose: 12.5 mg/kg/injection, schedule: Q01DX009 (ip), vehicle: water 118 % of control

O=C1CCCC2C3CCCN4CCCC(CN12)C34 (stereo unspecified)
inactive: dose: 3.12 mg/kg/injection, schedule: Q01DX007 (ip), vehicle: carboxymethylcellulose (CMC) 100 % of control | dose: 5.0 mg/kg/injection, schedule: Q01DX009 (ip), vehicle: saline 98 % of control | dose: 6.2 mg/kg/injection, schedule: Q01DX007 (ip), vehicle: carboxymethylcellulose (CMC) 100 % of control | dose: 6.25 mg/kg/injection, schedule: Q01DX007 (ip), vehicle: carboxymethylcellulose (CMC) 100 % of control | dose: 10.0 mg/kg/injection, schedule: Q01DX009 (ip), vehicle: saline 100 % of control and 94 % of control | dose: 12.5 mg/kg/injection, schedule: Q01DX007 (ip), vehicle: carboxymethylcellulose (CMC) 91 % of control | dose: 20.0 mg/kg/injection, schedule: Q01DX009 (ip), vehicle: saline 100 % of control and 110 % of control and 95 % of control | dose: 23.0 mg/kg/injection, schedule: Q01DX007 (ip), vehicle: carboxymethylcellulose (CMC) 100 % of control | dose: 25.0 mg/kg/injection, schedule: Q01DX007 (ip), vehicle: carboxymethylcellulose (CMC) 91 % of control | dose: 40.0 mg/kg/injection, schedule: Q01DX009 (ip), vehicle: saline 102 % of control and 117 % of control and 95 % of control | dose: 80.0 mg/kg/injection, schedule: Q01DX009 (ip), vehicle: saline 98 % of control and 110 % of control and 122 % of control | dose: 160.0 mg/kg/injection, schedule: Q01DX009 (ip), vehicle: saline 102 % of control and 119 % of control

COC(=O)[C@@]12OC[C@]34C([C@@H](O)C1O)[C@@]1(C)CC(=O)C(O)=C(C)C1C[C@H]3OC(=O)[C@H](OC(=O)c1cccc(Cl)c1)[C@H]42 (stereo partly specified)
inactive: dose: 0.25 mg/kg/injection, schedule: Q01DX005 (ip), vehicle: DMSO 119 % of control | dose: 0.5 mg/kg/injection, schedule: Q01DX005 (ip), vehicle: DMSO 112 % of control | dose: 1.0 mg/kg/injection, schedule: Q01DX005 (ip), vehicle: DMSO 121 % of control and 93 % of control | dose: 2.0 mg/kg/injection, schedule: Q01DX005 (ip), vehicle: DMSO 109 % of control and 110 % of control | dose: 4.0 mg/kg/injection, schedule: Q01DX005 (ip), vehicle: DMSO 105 % of control | dose: 8.0 mg/kg/injection, schedule: Q01DX005 (ip), vehicle: DMSO 101 % of control and 104 % of control | dose: 16.0 mg/kg/injection, schedule: Q01DX005 (ip), vehicle: DMSO 111 % of control | dose: 32.0 mg/kg/injection, schedule: Q01DX005 (ip), vehicle: DMSO 108 % of control

[N-]=[N+]=NC(=O)c1cccs1
inactive: [4] 100 % of control | [5] 101 % of control | [6] 100 % of control

CCCCCC1OC1CC1OC1CCCCCCCC(=O)OC (stereo unspecified)
inactive: [1] 96 % of control | [2] 96 % of control | [3] 104 % of control

C=CC#CC#Cc1ccc(C#CC)s1
inactive: dose: 12.5 mg/kg/injection, schedule: Q01DX009 (ip), vehicle: Klucel (hydroxypropylcellulose) (HPC) 96 % of control | dose: 25.0 mg/kg/injection, schedule: Q01DX009 (ip), vehicle: Klucel (hydroxypropylcellulose) (HPC) 100 % of control | dose: 50.0 mg/kg/injection, schedule: Q01DX009 (ip), vehicle: Klucel (hydroxypropylcellulose) (HPC) 105 % of control | dose: 100.0 mg/kg/injection, schedule: Q01DX009 (ip), vehicle: Klucel (hydroxypropylcellulose) (HPC) 104 % of control

COC1C(OC(=O)c2ccc(C)[nH]2)C(O)C(Oc2ccc3c(O)c(NC(=O)c4c[nH]c(C(=O)Nc5c(O)c6ccc(OC7OC(C)(C)C(OC)C(OC(=O)c8ccc(C)[nH]8)C7O)c(C)c6oc5=O)c4C)c(=O)oc3c2C)OC1(C)C (stereo unspecified)
inactive: dose: 6.25 mg/kg/injection, schedule: Q01DX009 (ip), vehicle: saline with Tween-80 110 % of control and 97 % of control | [4] 100 % of control and 122 % of control | [5] 96 % of control | [6] 103 % of control | [7] 118 % of control | dose: 100.0 mg/kg/injection, schedule: Q01DX009 (ip), vehicle: saline with Tween-80 90 % of control | [8] 113 % of control | dose: 100.0 mg/kg/injection, schedule: Q04DX003 (ip), vehicle: saline with Tween-80 109 % of control | dose: 200.0 mg/kg/injection, schedule: Q01DX009 (ip), vehicle: saline with Tween-80 109 % of control | [9] 102 % of control | dose: 200.0 mg/kg/injection, schedule: Q04DX003 (ip), vehicle: saline with Tween-80 100 % of control | dose: 400.0 mg/kg/injection, schedule: Q01DX009 (ip), vehicle: saline with Tween-80 100 % of control | dose: 400.0 mg/kg/injection, schedule: Q01DX009 (ip), vehicle: saline 117 % of control | dose: 400.0 mg/kg/injection, schedule: Q04DX003 (ip), vehicle: saline with Tween-80 109 % of control

CCOC(=O)/[C](=N\N=P(N(C)C)(N(C)C)N(C)C)[Sb]([CH3])[CH3]
inactive: dose: 12.5 mg/kg/injection, schedule: Q01DX001 (ip), vehicle: saline 99 % of control | dose: 25.0 mg/kg/injection, schedule: Q01DX001 (ip), vehicle: saline 102 % of control

O=C1c2ccccc2COC1c1ccccc1 (stereo unspecified)
inactive: [7] 108 % of control | [8] 111 % of control | [9] 118 % of control

COC(=O)C1=C/C=C\CN(CCC2OCC(CBr)O2)/C=C\1C(=O)OC (stereo unspecified)
inactive: dose: 100.0 mg/kg/injection, schedule: Q01DX001 (ip), vehicle: alcohol 95 % of control | dose: 200.0 mg/kg/injection, schedule: Q01DX001 (ip), vehicle: alcohol 100 % of control | dose: 400.0 mg/kg/injection, schedule: Q01DX001 (ip), vehicle: alcohol 100 % of control

CC1(C)OC2(C)CCC1C1C2N1C(=O)C(c1ccccc1)c1ccccc1 (stereo unspecified)
inactive: [1] 109 % of control | [2] 100 % of control | [3] 109 % of control

CCOC(=O)/C=C/C(=O)O (tested in a mixture with another compound)
inactive: dose: 100.0 mg/kg/injection, schedule: Q04DX003 (ip), vehicle: saline 100 % of control | dose: 200.0 mg/kg/injection, schedule: Q04DX003 (ip), vehicle: saline 98 % of control | dose: 400.0 mg/kg/injection, schedule: Q04DX003 (ip), vehicle: saline 96 % of control

CCCCCCCCCCC[N+](C)([O-])CCCCCC[N+](C)([O-])CCCCCCCCCCC (stereo unspecified)
inactive: [4] 100 % of control | [5] 100 % of control | [6] 102 % of control and 96 % of control
